In ChEMBL document CHEMBL3885861, “Open TG-GATES”:

Species on record: Rattus norvegicus
Assay: Open TG-GATES - Regimen: Daily Repeat
Type: toxicity, organism-based, Sprague-Dawley
Design: regimen Daily Repeat, gender Male, age 6 weeks
Settings: in vivo, po, route gavage; for Bas / Eos / Fbg / Hb / Ht / Lym / MCHC / MCV / Mono / PT / Plat / RBC / Ret / WBC / Neu: tissue Blood; for ALP / ALT / AST / CRE / Ca / Cl / DBIL / GLC / IP / K / LDH / Na / PL / RALB / TBIL / TC / TG / TP / gamma-GTP / BUN: tissue Plasma
[1] = 0 mg/kg, 72 h, dose level Control, time 3 day
[2] = 0 mg/kg, […], dose level Control, time 7 day
[3] = 0 mg/kg, […], dose level Control, time 14 day
[4] = 0 mg/kg, […], dose level Control, time 28 day
[5] = 100 mg/kg, 72 h, dose level Low, time 3 day
[6] = 100 mg/kg, […], dose level Low, time 7 day
[7] = 100 mg/kg, […], dose level Low, time 14 day
[8] = 100 mg/kg, […], dose level Low, time 28 day
[9] = 300 mg/kg, 72 h, dose level Middle, time 3 day

## O=C(O)c1cccnc1 [NIACIN]
[1]
  TERMINAL_BW: 241.1 g
  Bas: 0%
  Eos: 0.8%
  Fbg: 321 mg/dL
  Hb: 12.8 g/dL
  Ht: 38.2%
  Lym: 81.2%
  MCHC: 33.5%
  MCV: 62.4 fL
  Mono: 3%
  PT: 15.9 s
  Plat: 125.7 x10_4/uL
  RBC: 612.4 x10_4/ul
  Ret: 7.8%
  WBC: 116.2 x10_2/uL
  ALP: 1807.6 IU/L
  ALT: 48 IU/L
  AST: 73.2 IU/L
  CRE: 0.2 mg/dL
  Ca: 10.7 mg/dL
  Cl: 104.2 meq/L
  DBIL: 0 mg/dL
  GLC: 201.8 mg/dL
  IP: 7.7 mg/dL
  K: 4.4 meq/L
  LDH: 161.4 IU/L
  Na: 139.2 meq/L
  PL: 151.6 mg/dL
  RALB: 3.1 g/dL
  TBIL: 0 mg/dL
  TC: 80 mg/dL
  TG: 92.8 mg/dL
  TP: 5.6 g/dL
  gamma-GTP: 1.4 IU/L
[2]
  TERMINAL_BW: 268.8 g
  Bas: 0%
  Eos: 1%
  Fbg: 334.8 mg/dL
  Ht: 41.3%
  Lym: 78.2%
  MCHC: 34.3%
  Mono: 3.2%
  Neu: 16.8%
  PT: 16.5 s
  Plat: 116.1 x10_4/uL
  RBC: 681 x10_4/ul
  Ret: 5.5%
  WBC: 120.8 x10_2/uL
  ALP: 1431.4 IU/L
  ALT: 37.2 IU/L
  AST: 67 IU/L
  CRE: 0.1 mg/dL
  Ca: 10.8 mg/dL
  Cl: 105.2 meq/L
  DBIL: 0 mg/dL
  GLC: 190.4 mg/dL
  IP: 7.4 mg/dL
  K: 4.2 meq/L
  LDH: 155.6 IU/L
  Na: 139.8 meq/L
  PL: 160.4 mg/dL
  RALB: 3 g/dL
  TBIL: 0 mg/dL
  TC: 78.6 mg/dL
  TG: 130 mg/dL
  TP: 5.7 g/dL
  gamma-GTP: 1.6 IU/L
[3]
  TERMINAL_BW: 327.5 g
  Bas: 0%
  Eos: 1%
  Fbg: 329 mg/dL
  Ht: 41.5%
  Lym: 77.8%
  MCHC: 34.2%
  MCV: 60.4 fL
  Mono: 2.6%
  Neu: 17%
  PT: 15.9 s
  Plat: 115.7 x10_4/uL
  RBC: 688.8 x10_4/ul
  Ret: 5.1%
  WBC: 127.5 x10_2/uL
  ALP: 1595.6 IU/L
  AST: 68 IU/L
  CRE: 0.2 mg/dL
  Ca: 10.6 mg/dL
  Cl: 104.2 meq/L
  DBIL: 0 mg/dL
  GLC: 198.2 mg/dL
  IP: 7.1 mg/dL
  K: 4 meq/L
  LDH: 163.6 IU/L
  Na: 138 meq/L
  PL: 156 mg/dL
  RALB: 3.1 g/dL
  TBIL: 0.006 mg/dL
  TC: 75.6 mg/dL
  TG: 144.2 mg/dL
  TP: 5.9 g/dL
  gamma-GTP: 1 IU/L
[4]
  TERMINAL_BW: 405.7 g
  Bas: 0%
  Eos: 1.2%
  Fbg: 331.4 mg/dL
  Hb: 15 g/dL
  Ht: 42.7%
  Lym: 80.6%
  MCHC: 35.2%
  MCV: 56.6 fL
  Mono: 2%
  Neu: 15%
  PT: 16.5 s
  Plat: 89.6 x10_4/uL
  RBC: 754.4 x10_4/ul
  Ret: 3%
  WBC: 119.1 x10_2/uL
  ALP: 1086.6 IU/L
  ALT: 37.4 IU/L
  AST: 63.8 IU/L
  BUN: 17.8 mg/dL
  CRE: 0.2 mg/dL
  Ca: 10.1 mg/dL
  Cl: 106.4 meq/L
  DBIL: 0 mg/dL
  GLC: 214.4 mg/dL
  IP: 6.9 mg/dL
  K: 4.2 meq/L
  LDH: 150.6 IU/L
  Na: 142.8 meq/L
  PL: 149.4 mg/dL
  RALB: 3.1 g/dL
  TBIL: 0.012 mg/dL
  TC: 76.6 mg/dL
  TG: 121 mg/dL
  TP: 5.9 g/dL
  gamma-GTP: 2.4 IU/L
[5]
  TERMINAL_BW: 239.7 g
  Bas: 0%
  Eos: 1.2%
  Fbg: 317.2 mg/dL
  Hb: 13.7 g/dL
  Ht: 40.5%
  Lym: 70.2%
  MCV: 63.5 fL
  Mono: 4%
  Neu: 23.2%
  Plat: 107.5 x10_4/uL
  RBC: 637 x10_4/ul
  Ret: 6.9%
  WBC: 128.4 x10_2/uL
  ALP: 1717.8 IU/L
  ALT: 49 IU/L
  AST: 79.2 IU/L
  BUN: 16 mg/dL
  CRE: 0.1 mg/dL
  Ca: 10.8 mg/dL
  Cl: 104.2 meq/L
  DBIL: 0 mg/dL
  GLC: 199.8 mg/dL
  IP: 7.4 mg/dL
  K: 3.9 meq/L
  LDH: 171.8 IU/L
  Na: 139.2 meq/L
  PL: 163.8 mg/dL
  RALB: 3.1 g/dL
  TBIL: 0 mg/dL
  TC: 84.2 mg/dL
  TG: 110.8 mg/dL
  TP: 5.8 g/dL
  gamma-GTP: 1.2 IU/L
[6]
  TERMINAL_BW: 273.1 g
  Bas: 0%
  Eos: 1%
  Fbg: 316 mg/dL
  Hb: 13.5 g/dL
  Ht: 39.5%
  Lym: 82%
  MCHC: 34.1%
  MCV: 60.8 fL
  Mono: 3%
  Neu: 12.8%
  PT: 16 s
  Plat: 109.3 x10_4/uL
  RBC: 650 x10_4/ul
  Ret: 5.9%
  WBC: 109.2 x10_2/uL
  ALP: 1740.2 IU/L
  ALT: 44.4 IU/L
  AST: 69 IU/L
  BUN: 17.2 mg/dL
  CRE: 0.2 mg/dL
  Ca: 10.7 mg/dL
  Cl: 104.8 meq/L
  DBIL: 0 mg/dL
  GLC: 171.4 mg/dL
  IP: 7.3 mg/dL
  K: 4.7 meq/L
  LDH: 141 IU/L
  Na: 138.8 meq/L
  PL: 145 mg/dL
  RALB: 2.9 g/dL
  TBIL: 0 mg/dL
  TC: 66.6 mg/dL
  TG: 150 mg/dL
  TP: 5.5 g/dL
  gamma-GTP: 1.4 IU/L
[7]
  TERMINAL_BW: 326.9 g
  Bas: 0%
  Eos: 1%
  Fbg: 330.8 mg/dL
  Ht: 41.5%
  Lym: 75.2%
  MCHC: 34%
  Mono: 2.6%
  Neu: 20%
  PT: 15.8 s
  Plat: 107.6 x10_4/uL
  RBC: 685 x10_4/ul
  Ret: 4.7%
  WBC: 102.7 x10_2/uL
  ALP: 1532.6 IU/L
  ALT: 42.8 IU/L
  AST: 73.6 IU/L
  BUN: 17 mg/dL
  CRE: 0.2 mg/dL
  Ca: 10.5 mg/dL
  Cl: 104.6 meq/L
  DBIL: 0 mg/dL
  GLC: 196.4 mg/dL
  IP: 6.4 mg/dL
  K: 4 meq/L
  LDH: 209 IU/L
  Na: 138.4 meq/L
  PL: 144.4 mg/dL
  RALB: 3 g/dL
  TBIL: 0.002 mg/dL
  TC: 66.8 mg/dL
  TG: 150.8 mg/dL
  TP: 5.8 g/dL
  gamma-GTP: 1.4 IU/L
[8]
  TERMINAL_BW: 387.9 g
  Bas: 0%
  Eos: 1%
  Fbg: 330.4 mg/dL
  Hb: 15.2 g/dL
  Ht: 43.1%
  Lym: 83.4%
  MCHC: 35.3%
  MCV: 56 fL
  Mono: 2.4%
  Neu: 11.8%
  PT: 16.5 s
  Plat: 102.2 x10_4/uL
  RBC: 770 x10_4/ul
  Ret: 2.8%
  WBC: 117.4 x10_2/uL
  ALP: 1249.8 IU/L
  ALT: 39.8 IU/L
  AST: 64.6 IU/L
  BUN: 18.2 mg/dL
  CRE: 0.2 mg/dL
  Ca: 10.4 mg/dL
  Cl: 107 meq/L
  DBIL: 0 mg/dL
  GLC: 192.8 mg/dL
  IP: 6.5 mg/dL
  K: 4.2 meq/L
  LDH: 129.4 IU/L
  Na: 143.4 meq/L
  PL: 147.6 mg/dL
  RALB: 3.1 g/dL
  TBIL: 0.014 mg/dL
  TC: 70.6 mg/dL
  TG: 158.8 mg/dL
  TP: 6 g/dL
  gamma-GTP: 2 IU/L
[9]
  TERMINAL_BW: 241.8 g
  Bas: 0%
